Laboratory results: ChEMBL document CHEMBL3822364, “Synthesis, characterization and antimicrobial activity of novel Schiff base tethered boronate esters of 1,2-O-isopropylidene-α-d-xylofuranose” (2016)
Values after ≈ are worked out from the molar mass of the structure shown. Active and inactive are the calls of the source. No cut-off for these calls is given here.

Legend:
Streptococcus mutans [1] = test: Antibacterial activity against Streptococcus mutans MTCC 497 assessed as zone of inhibition at 100 ug/well measured after 24 hrs by agar well diffusion method; assay type: functional; conditions: MTCC 497, 24 h, read-out: DIZ
Micrococcus luteus [2] = test: Antibacterial activity against Micrococcus luteus MTCC 106 assessed as zone of inhibition at 100 ug/well measured after 24 hrs by agar well diffusion method; assay type: functional; conditions: MTCC 106, 24 h, read-out: DIZ
Staphylococcus aureus [3] = test: Antibacterial activity against Staphylococcus aureus MTCC 3160 assessed as zone of inhibition at 100 ug/well measured after 24 hrs by agar well diffusion method; assay type: functional; conditions: MTCC 3160, 24 h, read-out: DIZ
Salmonella paratyphi [4] = test: Antibacterial activity against Salmonella paratyphi assessed as zone of inhibition at 100 ug/well measured after 24 hrs by agar well diffusion method; assay type: functional, Salmonella enterica subsp. enterica serovar Paratyphi A; conditions: Salmonella enterica, read-out: DIZ
Salmonella typhi [5] = test: Antibacterial activity against Salmonella typhi assessed as zone of inhibition at 100 ug/well measured after 24 hrs by agar well diffusion method; assay type: functional, Salmonella enterica subsp. enterica serovar Typhi; conditions: Salmonella enterica, read-out: DIZ
Klebsiella pneumoniae [6] = test: Antibacterial activity against Klebsiella pneumoniae MTCC 3384 assessed as zone of inhibition at 100 ug/well measured after 24 hrs by agar well diffusion method; assay type: functional; conditions: MTCC 3384, 24 h, read-out: DIZ
Candida albicans [7] = test: Antifungal activity against Candida albicans MTCC 3017 assessed as zone of inhibition at 100 ug/well measured after 48 hrs by agar well diffusion method; assay type: functional; conditions: MTCC 3017, 48 h, read-out: DIZ
Aspergillus fumigatus [8] = test: Antifungal activity against Aspergillus fumigatus MTCC 343 assessed as zone of inhibition at 100 ug/well measured after 48 hrs by agar well diffusion method; assay type: functional; conditions: MTCC 343, 48 h, read-out: DIZ
Streptococcus mutans [9] = test: Antibacterial activity against Streptococcus mutans MTCC 497 measured after 24 hrs by NCCL protocol based broth dilution method; assay type: functional; conditions: MTCC 497, 24 h
Micrococcus luteus [10] = test: Antibacterial activity against Micrococcus luteus MTCC 106 measured after 24 hrs by NCCL protocol based broth dilution method; assay type: functional; conditions: MTCC 106, 24 h
Staphylococcus aureus [11] = test: Antibacterial activity against Staphylococcus aureus MTCC 3160 measured after 24 hrs by NCCL protocol based broth dilution method; assay type: functional; conditions: MTCC 3160, 24 h
Salmonella paratyphi [12] = test: Antibacterial activity against Salmonella paratyphi measured after 24 hrs by NCCL protocol based broth dilution method; assay type: functional, Salmonella enterica subsp. enterica serovar Paratyphi A
Salmonella typhi [13] = test: Antibacterial activity against Salmonella typhi measured after 24 hrs by NCCL protocol based broth dilution method; assay type: functional, Salmonella enterica subsp. enterica serovar Typhi
Klebsiella pneumoniae [14] = test: Antibacterial activity against Klebsiella pneumoniae MTCC 3384 measured after 24 hrs by NCCL protocol based broth dilution method; assay type: functional
Candida albicans [15] = test: Antifungal activity against Candida albicans MTCC 3017 measured after 48 hrs by NCCL protocol based broth dilution method; assay type: functional; conditions: MTCC 3017, 48 h
Aspergillus fumigatus [16] = test: Antifungal activity against Aspergillus fumigatus MTCC 343 measured after 48 hrs by NCCL protocol based broth dilution method; assay type: functional

Row | SMILES | zone of inhibition at 100 µg/disc (Streptococcus mutans [1]) [mm] | zone of inhibition at 100 µg/disc (Micrococcus luteus [2]) [mm] | zone of inhibition at 100 µg/disc (Staphylococcus aureus [3]) [mm] | zone of inhibition at 100 µg/disc (Salmonella paratyphi [4]) [mm] | zone of inhibition at 100 µg/disc (Salmonella typhi [5]) [mm] | zone of inhibition at 100 µg/disc (Klebsiella pneumoniae [6]) [mm] | zone of inhibition at 100 µg/disc (Candida albicans [7]) [mm] | zone of inhibition at 100 µg/disc (Aspergillus fumigatus [8]) [mm] | MIC (Streptococcus mutans [9]) [µg/mL] | MIC (Micrococcus luteus [10]) [µg/mL] | MIC (Staphylococcus aureus [11]) [µg/mL] | MIC (Salmonella paratyphi [12]; Salmonella enterica) [µg/mL] | MIC (Salmonella typhi [13]; Salmonella enterica) [µg/mL] | MIC (Klebsiella pneumoniae [14]; MTCC 3384, 24 h) [µg/mL] | MIC (Candida albicans [15]) [µg/mL] | MIC (Aspergillus fumigatus [16]; MTCC 343, 48 h) [µg/mL] | MIC (Salmonella paratyphi [12]; Salmonella enterica subsp. enterica serovar Paratyphi A) | MIC (Salmonella typhi [13]; Salmonella enterica subsp. enterica serovar Typhi) | MIC (Klebsiella pneumoniae [14]) | MIC (Aspergillus fumigatus [16])
1 | CC(C)c1ccc(/N=C/c2ccc(B3OC[C@H]4O[C@@H]5OC(C)(C)O[C@@H]5[C@H]4O3)cc2)cc1 | 19 | 13 | 16 | 0 | 22 | 24 | 12 | 0 | 125 (≈ 297 µM) | 250 (≈ 593 µM) | 125 (≈ 297 µM) | 500 (≈ 1190 µM) | 62.5 (≈ 148 µM) | 31.2 (≈ 74.2 µM) | 250 (≈ 593 µM) | 500 (≈ 1190 µM) | – | – | – | –
2 | Cc1ccccc1B1OC[C@H]2O[C@@H]3OC(C)(C)O[C@@H]3[C@H]2O1 | 9 | 6 | 7 | 6 | 7 | 6 | 7 | 6 | 125 (≈ 431 µM) | 250 (≈ 862 µM) | 250 (≈ 862 µM) | 125 (≈ 431 µM) | 250 (≈ 862 µM) | 250 (≈ 862 µM) | 500 (≈ 1720 µM) | 500 (≈ 1720 µM) | – | – | – | –
3 | CC1(C)O[C@H]2O[C@@H]3COC(c4ccc(/C=N\c5ccc(F)cc5)cc4)O[C@@H]3[C@H]2O1 (stereo not given in full) | 6 | 0 | 8 | 0 | 0 | 0 | 6 | 0 | 250 (≈ 626 µM) | 500 (≈ 1250 µM) | 500 (≈ 1250 µM) | – | – | – | 500 (≈ 1250 µM) | – | inactive | inactive | inactive | inactive
4 | CC1(C)O[C@H]2O[C@@H]3COB(c4cccc(/C=N/c5ccc(Cl)cc5)c4)O[C@@H]3[C@H]2O1 | 16 | 17 | 15 | 13 | 25 | 22 | 11 | 0 | 125 (≈ 302 µM) | 125 (≈ 302 µM) | 250 (≈ 604 µM) | 250 (≈ 604 µM) | 31.2 (≈ 75.5 µM) | 62.5 (≈ 151 µM) | 250 (≈ 604 µM) | 500 (≈ 1210 µM) | – | – | – | –
5 | CC1(C)O[C@H]2O[C@@H]3COB(c4ccc(/C=N/c5ccc(Br)cc5)cc4)O[C@@H]3[C@H]2O1 | 17 | 13 | 15 | 24 | 22 | 17 | 19 | 16 | 62.5 (≈ 136 µM) | 250 (≈ 546 µM) | 125 (≈ 273 µM) | 15.6 (≈ 34.1 µM) | 62.5 (≈ 136 µM) | 62.5 (≈ 136 µM) | 62.5 (≈ 136 µM) | 125 (≈ 273 µM) | – | – | – | –
6 | Cc1ccc(/N=C/c2cccc(B3OC[C@H]4O[C@@H]5OC(C)(C)O[C@@H]5[C@H]4O3)c2)cc1 | 13 | 12 | 13 | 12 | 20 | 20 | 17 | 14 | 250 (≈ 636 µM) | 250 (≈ 636 µM) | 125 (≈ 318 µM) | 500 (≈ 1270 µM) | 125 (≈ 318 µM) | 125 (≈ 318 µM) | 250 (≈ 636 µM) | 125 (≈ 318 µM) | – | – | – | –
7 | COc1ccc(/N=C/c2ccc(B3OC[C@H]4O[C@@H]5OC(C)(C)O[C@@H]5[C@H]4O3)cc2)cc1 | 12 | 11 | 11 | 13 | 19 | 18 | 17 | 0 | 250 (≈ 611 µM) | 250 (≈ 611 µM) | 500 (≈ 1220 µM) | 250 (≈ 611 µM) | 125 (≈ 305 µM) | 125 (≈ 305 µM) | 125 (≈ 305 µM) | 500 (≈ 1220 µM) | – | – | – | –
8 | CC1(C)O[C@H]2O[C@@H]3COB(c4cccc(/C=N/c5ccc(Br)cc5)c4)O[C@@H]3[C@H]2O1 | 20 | 14 | 13 | 21 | 22 | 18 | 16 | 0 | 62.5 (≈ 136 µM) | 125 (≈ 273 µM) | 250 (≈ 546 µM) | 62.5 (≈ 136 µM) | 31.2 (≈ 68.2 µM) | 62.5 (≈ 136 µM) | 125 (≈ 273 µM) | 250 (≈ 546 µM) | – | – | – | –
9 | CC1(C)O[C@H]2O[C@@H]3COB(c4ccc(/C=N/c5ccc(F)cc5)cc4)O[C@@H]3[C@H]2O1 | 21 | 15 | 18 | 22 | 20 | 21 | 16 | 0 | 31.2 (≈ 78.7 µM) | 62.5 (≈ 157 µM) | 62.5 (≈ 157 µM) | 31.2 (≈ 78.7 µM) | 62.5 (≈ 157 µM) | 31.2 (≈ 78.7 µM) | 125 (≈ 315 µM) | 250 (≈ 629 µM) | – | – | – | –
10 | Cc1ccc(/N=C/c2ccc(B3OC[C@H]4O[C@@H]5OC(C)(C)O[C@@H]5[C@H]4O3)cc2)cc1 | 17 | 12 | 17 | 0 | 18 | 24 | 12 | 0 | 125 (≈ 318 µM) | 125 (≈ 318 µM) | 125 (≈ 318 µM) | 500 (≈ 1270 µM) | 125 (≈ 318 µM) | 62.5 (≈ 159 µM) | 250 (≈ 636 µM) | 500 (≈ 1270 µM) | – | – | – | –
